# Measurements taken from US12037324B2, “Biarylmethyl heterocycles” (Université de Montréal, priority 2016, dated 2024).
# Like-named read-outs stand apart in the source and are kept apart here.
# Key:
# hAT1R [1] = biological target: T1, hAT1R (Homo sapiens, UniProt P30556); assay: cell-based
# T1 sequence (P30556 1-359): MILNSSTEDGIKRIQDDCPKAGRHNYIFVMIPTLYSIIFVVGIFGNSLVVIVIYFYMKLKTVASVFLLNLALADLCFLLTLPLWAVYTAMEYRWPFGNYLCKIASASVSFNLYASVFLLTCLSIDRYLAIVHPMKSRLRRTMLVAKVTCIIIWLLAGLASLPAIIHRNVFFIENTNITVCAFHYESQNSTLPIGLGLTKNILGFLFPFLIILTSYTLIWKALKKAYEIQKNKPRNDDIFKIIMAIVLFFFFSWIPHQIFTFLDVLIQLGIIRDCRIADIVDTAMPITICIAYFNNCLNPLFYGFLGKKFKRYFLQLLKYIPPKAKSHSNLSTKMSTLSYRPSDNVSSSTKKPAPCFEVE
# hAT1R [2] = biological target: T1, hAT1R; assay: cell-based; conditions: agonist mode; for EC50: read-out: BRET P63 EC50
# AGTR1 [3] = biological target: T2, AGTR1 (Homo sapiens, UniProt P30556); assay: DiscoveRx IP1 accumulation assay (HTRF), agonist mode, Pathunter CHO-K1 AGTR1 β-arrestin cell line; format: cell-based; conditions: for EC50: read-out: IP-1 EC50
# T2 construct: host or cells: Pathunter CHO-K1 AGTR1 β-arrestin cell line (CHO-K1)
# T2 sequence (P30556 1-359): T1 sequence (P30556 1-359)
# Outline: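 Agonist mode in CHO-K1 AGTR1 β-arrestin cells plated 14-16 h before; compounds at varying concentrations for 90 min at 37° C, IP1 accumulation read by HTRF (D2-conjugate and anti-IP1 cryptate, 20 min room temperature). EC50 from 4-parameter logistic fit; activity given as percentage of maximal AII effect.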
# AGTR1 [4] = biological target: T2, AGTR1; assay: DiscoveRx β-arrestin2 recruitment assay (enzyme complementation, Pathunter CHO-K1 AGTR1 β-arrestin cell line); format: cell-based; conditions: DiscoveRx β-arrestin2 recruitment; for DiscoveRx β-arrestin2 Ymax (%): maximal response
# Outline: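 Chemiluminescent enzyme-complementation read-out of β-arrestin2 recruitment to AGTR1 in engineered CHO-K1 cells after 90 min compound exposure at 37° C. Values are 4-parameter logistic EC50s in agonist mode, IC50s in antagonist mode, with efficacy relative to the maximal All response.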
# [5] = section of the 42nd table ending at r951, example numbering restarts after the DiscoveRx section, read-out: β-arrestin2 EC50
# [6] = Low AT1R Expression, read-out: BRET β-Arrestin2 Low AT1R Expression EC50
SMILES,EC50 (hAT1R [1]; [5]),EC50 (hAT1R [2]),IP-1 Ymax (%) (AGTR1 [3]),EC50 (AGTR1 [3]),EC50 (AGTR1 [4]),DiscoveRx β-arrestin2 Ymax (%) (AGTR1 [4]),BRET P63 Ymax (hAT1R [2]),EC50 (hAT1R [1]; [6]),BRET β-Arrestin2 Low AT1R Expression Ymax (%) (hAT1R [1]; Low AT1R Expression)
"CCCC1=NC2(CCOC2)C(=O)N1Cc1ccc(-c2cc(-c3ccccc3)ccc2-c2nnn[nH]2)cc1 (single isomer, unassigned) [Example 162]",373 nM,> 10000 nM,8.9%,235 nM,147 nM,31.9%,,,
"CCCC1=NC2(CCOC2)C(=O)N1Cc1ccc(-c2cc(-c3cccc(C)c3)ccc2-c2nnn[nH]2)cc1 (single isomer, unassigned) [Example 163]",91.8 nM,> 10000 nM,7.8%,181 nM,69.2 nM,34.6%,,,
"CCCC1=NC2(CCOC2)C(=O)N1Cc1ccc(-c2cc(-c3ccccc3O)ccc2-c2nnn[nH]2)cc1 (single isomer, unassigned) [Example 164]",160 nM,106 nM,17.3%,231 nM,76 nM,58.7%,15.6%,,
"CCC1=NC2(CCOC2)C(=O)N1Cc1ccc(-c2cc(-c3ccccc3)ccc2-c2nn[nH]n2)cc1 (single isomer, unassigned) [Example 165]",281 nM,262 nM,17.7%,192 nM,56.8 nM,45.7%,14.1%,,
"CCC1=NC2(CCOC2)C(=O)N1Cc1ccc(-c2cc(-c3cccc(C)c3)ccc2-c2nnn[nH]2)cc1 (single isomer, unassigned) [Example 166]",64.5 nM,65 nM,14.8%,103 nM,23.1 nM,47.5%,22.7%,,
"CCC1=NC2(CCOC2)C(=O)N1Cc1ccc(-c2cc(-c3ccccc3O)ccc2-c2nnn[nH]2)cc1 (single isomer, unassigned) [Example 167]",58.3 nM,91.5 nM,32.4%,165 nM,36 nM,78.8%,32.0%,,
"CCC1=NC2(CCOC2)C(=O)N1Cc1ccc(-c2cc(-c3ccccc3)ccc2-c2nnn[nH]2)cc1 (single isomer, unassigned) [Example 168]",998 nM,> 10000 nM,13.8%,826 nM,352 nM,34.5%,,,
"CCC1=NC2(CCOC2)C(=O)N1Cc1ccc(-c2cc(-c3cccc(C)c3)ccc2-c2nnn[nH]2)cc1 (single isomer, unassigned) [Example 169]",271 nM,127 nM,14.5%,484 nM,111 nM,50.1%,13.3%,,
"CCC1=NC2(CCOC2)C(=O)N1Cc1ccc(-c2cc(-c3ccccc3O)ccc2-c2nnn[nH]2)cc1 (single isomer, unassigned) [Example 170]",590 nM,633 nM,13.2%,469 nM,170 nM,63.4%,13.5%,,
CCc1nc2c(C)cc(C)nc2n1Cc1ccc(-c2cc(-c3ccc(OC)cc3)ccc2-c2nn[nH]n2)cc1 [Example 14],,> 10000 nM,8.1%,14.5 nM,10.3 nM,20.8%,,> 10000 nM,
"CCc1nc2c(C)cc(C)nc2n1Cc1ccc(-c2cc(-c3cc(OC)ccn3)ccc2-c2nn[nH]n2)cc1 [Example 62, 2-Ethyl-3-((5′-(4-methoxypyridin-2-yl)-2′-(2H-tetrazol-5-yl)-[1,1′-biphenyl]-4-yl)methyl)-5,7-dimethyl-3H-imidazo[4,5-b]pyridine]",,4.2 nM,22.7%,29 nM,15.1 nM,50.0%,35.7%,3.7 nM,74.7%
